Series [1] relates to Penicillium digitatum (Pd). The series can be described thus: Antifungal activity of vapor against Penicillium digitatum in wounded, infected mandarins. The format is in vivo. Particulars: for effect on Pd infection: airtight container with fan, 18 hours, then 6 days; for infected: 125 μL, 30 minutes.
The test system of a further series is mandarins. The experiment in a line: Visible appearance of vapor-treated mandarins. It is filed as in vivo. Particulars: 72 hours vapor of 3 mL in a Petri dish. As for the experimental part:
Example 1. The antifungal activity of diallyl disulfide (DADS) vapor against Penicillium digitatum (Pd) was tested in mandarins. All samples were wounded by puncturing with a screw and infected by dispensing 1000 Pd spores suspended in 10 μL of water into each wound. The test groups consisted of mandarins that were: untreated; dipped in a solution of 1 g/L of imazalil; and exposed for 72 hours to the vapor of 3 mL of DADS in a Petri dish.
Example 2. The antifungal activity of allyl isothiocyanate (AITC) and DADS vapor was tested against Pd and Penicillium italicum (Pi) in mandarins. All samples were wounded by puncturing with a screw. Mandarins were infected by dispensing either 1000 Pd spores or 1000 Pi spores suspended in 10 μL into the wound. The test groups consisted of mandarins that were: uninfected and untreated; uninfected and treated by dipping in a solution of 1 g/L of imazalil; infected with Pd and untreated; infected with Pd and exposed to AITC; infected with Pd and exposed to DADS; infected with Pi and untreated; infected with Pi and exposed to AITC; and infected with Pi and exposed to DADS. Exposure to AITC or DADS consisted of exposing the mandarins for 72 hours to the vapor of 3 mL of the respective compound dispensed in a Petri dish. […]
Example 5. […] The test groups were then left at ambient temperature, high humidity, and assessed for Pd mold after 6 days. […]

Entries after “also recorded” stand apart in the source; their conditions may differ.

The values that follow come from US20250204541A1, “GAS PHASE TREATMENT OF PRODUCE” (priority 2022, published 2025).

For `C=CCN=C=S` [AITC, allyl isothiocyanate], the “effect on Pd infection at 50% of the minimum inhibitory concentration” value in series [1] (62.5 μL AITC vapor for 30 minutes, assessed after 6 days) is recorded as “tends to reduce the severity of infection, but not eliminate the incidence of infection”. For the same compound, the “effect on Pd infection” value in series [1] (62.5 μL on filter paper disc) is on record as “reduced the severity of infection relative to the untreated group”; in series [1] (500 μL on filter paper disc), “substantially prevented the growth mold”. In addition, the “effect on Pd mold” value in series [1] (125 μL on filter paper, airtight container, 2 hour exposure, assessed after 6 days) was “substantially eliminated the mold”. Besides, the infected in series [1] (treated 24 hours after infection, assessed after 6 days) is 8.3%; in series [1] (treated 48 hours after infection, assessed after 6 days), 25%; in series [1] (treated 72 hours after infection, assessed after 6 days) it was 16.7%; in series [1] (treated 96 hours after infection, assessed after 6 days), 81.6%; in series [1] (treated immediately after infection (0 hours), assessed after 6 days), 58.3%.
For `C=CCSSCC=C` [DADS, diallyl disulfide], in the series with mandarins, the “visible appearance of treated fruit” value is recorded as “no visible degradation or discoloration; also recorded: No difference in appearance”.
